{"source": "PubChem BioAssay AID288", "about": "(DTP/NCI, 2004)", "tested_on": "BDF1 mice, M5076 sarcoma s.c., survival/tumor T/C", "test": "NCI In Vivo Anticancer Drug Screen. Data for tumor model Sarcoma M5076 (subcutaneous) in B6D2F1 (BDF1) mice", "procedure": "The antitumor activity of compounds was measured in mice bearing transplantable tumors. Survival or tumor size were measured and the results are expressed as the measurement made in the treated group (T) divided by the measurement made in the vehicle treated control group (C). The tumor model used in this assay is Sarcoma M5076 (subcutaneous) in B6D2F1 (BDF1) mice", "key": {"[1]": {"settings": "endpoint: median survival time, dose: 100.0 mg/kg/injection, schedule: Q01DX009 (ip), vehicle: saline with Tween-80, higher = longer survival"}, "[2]": {"settings": "endpoint: median survival time, dose: 200.0 mg/kg/injection, schedule: Q01DX009 (ip), vehicle: saline with Tween-80, higher = longer survival"}}, "note": "Results filed as inconclusive are left out.", "data": [{"smiles": "COc1cccc2c1C(=O)c1c(O)c3c(c(O)c1C2=O)C[C@@](O)(C(=O)CO)C[C@@H]3OC1CC(N)C(O)C(C)O1", "note": "(some centres not stated)", "values": [{"measurement": "T/C", "setting": "endpoint: mean tumor weight, dose: 1.0 mg/kg/injection, schedule: Q02DX011 (ip), vehicle: saline, higher = larger tumour", "value": "81 % of control"}, {"measurement": "T/C", "setting": "endpoint: mean tumor weight, dose: 2.0 mg/kg/injection, schedule: Q02DX011 (ip), vehicle: saline, higher = larger tumour", "value": "39 % of control"}, {"measurement": "T/C", "setting": "endpoint: median survival time, dose: 0.25 mg/kg/injection, schedule: Q02DX009 (iv), vehicle: saline, higher = longer survival", "value": "97 % of control"}, {"measurement": "T/C", "setting": "endpoint: median survival time, dose: 0.5 mg/kg/injection, schedule: Q02DX009 (iv), vehicle: saline, higher = longer survival", "value": "94 % of control"}, {"measurement": "T/C", "setting": "endpoint: median survival time, dose: 0.5 mg/kg/injection, schedule: Q04DX009 (ip), vehicle: saline, higher = longer survival", "value": "114 % of control"}, {"measurement": "T/C", "setting": "endpoint: median survival time, dose: 1.0 mg/kg/injection, schedule: Q02DX009 (iv), vehicle: saline, higher = longer survival", "value": "100 % of control"}, {"measurement": "T/C", "setting": "endpoint: median survival time, dose: 1.0 mg/kg/injection, schedule: Q02DX011 (ip), vehicle: water, higher = longer survival", "value": "100 % of control"}, {"measurement": "T/C", "setting": "endpoint: median survival time, dose: 1.0 mg/kg/injection, schedule: Q04DX009 (ip), vehicle: saline, higher = longer survival", "value": "111 % of control"}, {"measurement": "T/C", "setting": "endpoint: median survival time, dose: 1.3 mg/kg/injection, schedule: Q04DX004 (iv), vehicle: saline, higher = longer survival", "value": "100 % of control"}, {"measurement": "T/C", "setting": "endpoint: median survival time, dose: 2.0 mg/kg/injection, schedule: Q02DX009 (iv), vehicle: saline, higher = longer survival", "value": "97 % of control"}, {"measurement": "T/C", "setting": "endpoint: median survival time, dose: 2.0 mg/kg/injection, schedule: Q02DX011 (ip), vehicle: water, higher = longer survival", "value": "94 % of control"}, {"measurement": "T/C", "setting": "endpoint: median survival time, dose: 2.0 mg/kg/injection, schedule: Q04DX009 (ip), vehicle: saline, higher = longer survival", "value": "111 % of control"}, {"measurement": "T/C", "setting": "endpoint: median survival time, dose: 2.16 mg/kg/injection, schedule: Q04DX004 (ip), vehicle: saline, higher = longer survival", "value": "90 % of control"}, {"measurement": "T/C", "setting": "endpoint: median survival time, dose: 2.16 mg/kg/injection, schedule: Q04DX004 (iv), vehicle: saline, higher = longer survival", "value": "112 % of control"}, {"measurement": "T/C", "setting": "endpoint: median survival time, dose: 3.0 mg/kg/injection, schedule: Q02DX011 (ip), vehicle: water, higher = longer survival", "value": "96 % of control"}, {"measurement": "T/C", "setting": "endpoint: median survival time, dose: 3.0 mg/kg/injection, schedule: Q04DX003 (iv), vehicle: saline, higher = longer survival", "value": "108 % of control"}, {"measurement": "T/C", "setting": "endpoint: median survival time, dose: 3.6 mg/kg/injection, schedule: Q04DX004 (ip), vehicle: saline, higher = longer survival", "value": "103 % of control"}, {"measurement": "T/C", "setting": "endpoint: median survival time, dose: 3.6 mg/kg/injection, schedule: Q04DX004 (iv), vehicle: saline, higher = longer survival", "value": "93 % of control"}, {"measurement": "T/C", "setting": "endpoint: median survival time, dose: 4.0 mg/kg/injection, schedule: Q02DX011 (ip), vehicle: water, higher = longer survival", "value": "38 % of control"}, {"measurement": "T/C", "setting": "endpoint: median survival time, dose: 4.0 mg/kg/injection, schedule: Q04DX009 (ip), vehicle: saline, higher = longer survival", "value": "108 % of control"}, {"measurement": "T/C", "setting": "endpoint: median survival time, dose: 4.5 mg/kg/injection, schedule: Q04DX003 (iv), vehicle: saline, higher = longer survival", "value": "124 % of control"}, {"measurement": "T/C", "setting": "endpoint: median tumor weight (est.), dose: 1.0 mg/kg/injection, schedule: Q02DX011 (ip), vehicle: saline, higher = larger tumour", "value": "76 % of control"}, {"measurement": "T/C", "setting": "endpoint: median tumor weight (est.), dose: 2.0 mg/kg/injection, schedule: Q02DX011 (ip), vehicle: saline, higher = larger tumour", "value": "26 % of control"}]}, {"smiles": "C[c-]1[c-][c-][c-][c-]1.C[c-]1[c-][c-][c-][c-]1.[C-]#[O+].[C-]#[O+].[C-]#[O+].[C-]#[O+].[C-]#[O+].[C-]#[O+].[Mo].[Mo]", "values": [{"measurement": "T/C", "setting": "[1]", "value": "111 % of control"}, {"measurement": "T/C", "setting": "[2]", "value": "94 % of control"}]}, {"smiles": "S=P(N1CC1)(N1CC1)N1CC1", "values": [{"measurement": "T/C", "setting": "endpoint: median survival time, dose: 3.4 mg/kg/injection, schedule: Q01DX007 (ip), vehicle: saline, higher = longer survival", "value": "100 % of control"}, {"measurement": "T/C", "setting": "endpoint: median survival time, dose: 3.4 mg/kg/injection, schedule: Q02DX007 (ip), vehicle: saline, higher = longer survival", "value": "105 % of control"}, {"measurement": "T/C", "setting": "endpoint: median survival time, dose: 4.0 mg/kg/injection, schedule: Q04DX003 (ip), vehicle: saline, higher = longer survival", "value": "101 % of control"}, {"measurement": "T/C", "setting": "endpoint: median survival time, dose: 5.0 mg/kg/injection, schedule: Q01DX007 (ip), vehicle: saline, higher = longer survival", "value": "105 % of control"}, {"measurement": "T/C", "setting": "endpoint: median survival time, dose: 5.0 mg/kg/injection, schedule: Q02DX007 (ip), vehicle: saline, higher = longer survival", "value": "101 % of control"}, {"measurement": "T/C", "setting": "endpoint: median survival time, dose: 6.0 mg/kg/injection, schedule: Q04DX003 (ip), vehicle: saline, higher = longer survival", "value": "100 % of control"}, {"measurement": "T/C", "setting": "endpoint: median survival time, dose: 6.0 mg/kg/injection, schedule: Q07DX003 (ip), vehicle: saline, higher = longer survival", "value": "99 % of control"}, {"measurement": "T/C", "setting": "endpoint: median survival time, dose: 7.5 mg/kg/injection, schedule: Q01DX007 (ip), vehicle: saline, higher = longer survival", "value": "106 % of control"}, {"measurement": "T/C", "setting": "endpoint: median survival time, dose: 7.5 mg/kg/injection, schedule: Q02DX007 (ip), vehicle: saline, higher = longer survival", "value": "117 % of control"}, {"measurement": "T/C", "setting": "endpoint: median survival time, dose: 9.0 mg/kg/injection, schedule: Q04DX003 (ip), vehicle: saline, higher = longer survival", "value": "107 % of control"}, {"measurement": "T/C", "setting": "endpoint: median survival time, dose: 9.0 mg/kg/injection, schedule: Q07DX003 (ip), vehicle: saline, higher = longer survival", "value": "108 % of control"}, {"measurement": "T/C", "setting": "endpoint: median survival time, dose: 12.0 mg/kg/injection, schedule: Q07DX003 (ip), vehicle: saline, higher = longer survival", "value": "111 % of control"}]}, {"smiles": "COc1cc(-c2ccc(NC(=O)NC3CC3)c(OC)c2)ccc1NC(=O)NC1CC1", "values": [{"measurement": "T/C", "setting": "endpoint: median survival time, dose: 50.0 mg/kg/injection, schedule: Q01DX009 (ip), vehicle: saline with Tween-80, higher = longer survival", "value": "101 % of control"}, {"measurement": "T/C", "setting": "[1]", "value": "93 % of control"}, {"measurement": "T/C", "setting": "[2]", "value": "88 % of control"}, {"measurement": "T/C", "setting": "endpoint: median tumor weight (est.), dose: 50.0 mg/kg/injection, schedule: Q01DX009 (ip), vehicle: saline with Tween-80, higher = larger tumour", "value": "101 % of control"}, {"measurement": "T/C", "setting": "endpoint: median tumor weight (est.), dose: 100.0 mg/kg/injection, schedule: Q01DX009 (ip), vehicle: saline with Tween-80, higher = larger tumour", "value": "84 % of control"}]}]}
